We go through 4 molecules from PMC7377239, “Cardiovascular Effects of Polychlorinated Biphenyls and Their Major Metabolites” (Environmental Health Perspectives, 2020).

Molecules are shown by their SMILES. Structures can show the parent of a compound that is named as a salt. Where two headings read alike, the source gives them in different places.

The test system of test [1] is iCell cardiomyocytes (human iPSC-derived cardiomyocytes). The experiment in a line: High-content imaging of cytotoxicity and mitochondrial integrity in iPSC-CMs. Format: cell-based. The conditions noted are these: Homo sapiens, Cardiomyocyte, cardiomyocytes (cm). The essentials:
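This assay measured cytotoxicity and mitochondrial integrity in iPSC cardiomyocytes held in 40μL maintenance medium. After compound exposure, a 2× staining solution with Hoechst 33342 (4μg/mL) and MitoTracker™ Orange (0.4μM) was applied for 15 min at 37°C. Cells were washed, fixed with 3.7% formaldehyde, imaged on DAPI and Cy3 channels, and scored in MetaXpress®.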

The subject of a further test is HUVECs. As to the kind of experiment: High-content imaging cytotoxicity in HUVECs, 24 h. The class given is cell-based, human. The conditions noted are these: Homo sapiens, HUVEC, 24 h, HUVEC, 24 hr. The essentials:
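Read-out: multiwavelength high-content imaging of Hoechst 33342, MitoTracker Orange and calcein AM after 24 h compound exposure of confluent HUVEC monolayers. POD values were set using a one-SD cutoff from vehicle (0.5% DMSO) means; with no concentration–response, 100μM was assigned as no observable adverse effect level.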

The mark [2] stands for this setting: 1.5 h, cam, 90 min, read-out: POD cm.cam.90min.
The mark [3] stands for this setting: 1.5 h, mii, 90 min, read-out: POD cm.mii.90min.
Setting [4] is: 1.5 h, mito, 90 min, read-out: POD cm.mito.90min.
The mark [5] stands for this setting: 1.5 h, tc, 90 min, read-out: POD cm.tc.90min.
The mark [6] stands for this setting: 24 h, cam, 24 hrs, read-out: POD cm.cam.24hrs.
The mark [7] stands for this setting: 24 h, mii, 24 hrs, read-out: POD cm.mii.24hrs.
The mark [8] stands for this setting: 24 h, mito, 24 hrs, read-out: POD cm.mito.24hrs.
The mark [9] stands for this setting: 24 h, tc, 24 hrs, read-out: POD cm.tc.24hrs.
[10] abbreviates: cyto, read-out: POD huvec.cyto.24hr.
The mark [11] stands for this setting: mito, read-out: POD huvec.mito.24hr.
[12] abbreviates: mitoint, read-out: POD huvec.mitoint.24hr.
Where [13] appears, read: nma, read-out: POD huvec.nma.24hr.
[14] abbreviates: tc, read-out: POD huvec.tc.24hr.

On to `COc1ccc(-c2cccc(Cl)c2)cc1Cl` [4-OMe-PCB 11, 4-methoxy-3,3′-dichlorobiphenyl], for which the minimal effective concentration in test [1] (setting [2]) worked out at 33.8 µM; in test [1] (setting [3]) it was 62.2 µM; in test [1] (setting [4]), 29.1 µM; in test [1] (setting [5]), 28.6 µM; in test [1] (setting [6]) it was 37.2 µM; in test [1] (setting [7]), 10.8 µM. The minimal effective concentration in test [1] (setting [8]) is 31.1 µM; in test [1] (setting [9]) it was 33.4 µM; in the test with HUVECs (setting [10]), 7.59 µM; in the test on HUVECs (setting [11]), 6.19 µM; in the test on HUVECs (setting [12]), 16 µM; in the test on HUVECs (setting [13]) it was 6.39 µM. Moreover, in the test on HUVECs (setting [14]), the minimal effective concentration turned out to be 7.59 µM.

Turning to `COc1cc(Cl)c(-c2cc(Cl)ccc2Cl)cc1Cl` [4-OMe-PCB 52, 4-methoxy-2,2′,5,5′-tetrachlorobiphenyl], the minimal effective concentration is 27.6 µM in test [1] (setting [2]); 57.2 µM in test [1] (setting [3]); 18.6 µM in test [1] (setting [4]); 33 µM in test [1] (setting [5]); 33 µM in test [1] (setting [6]); 5.58 µM in test [1] (setting [7]). The minimal effective concentration in test [1] (setting [8]) amounted to 35.8 µM; in test [1] (setting [9]) it was 35 µM; with HUVECs (setting [10]), 0.78 µM; in the test with HUVECs (setting [11]), 0.55 µM; with HUVECs (setting [12]), 2.69 µM; in the test with HUVECs (setting [13]) it was 2.36 µM. For the same molecule, the minimal effective concentration in the test with HUVECs (setting [14]) came out at 0.78 µM.

`O=S(=O)(O)Oc1ccc(-c2cccc(Cl)c2)cc1Cl` [4-PCB 11 sulfate]: the minimal effective concentration in test [1] (setting [2]) was 100 µM; in test [1] (setting [3]), 100 µM; in test [1] (setting [4]) it was 100 µM; in test [1] (setting [5]) it was 100 µM; in test [1] (setting [6]) it was 5.91 µM; in test [1] (setting [7]), 49.2 µM. The minimal effective concentration in test [1] (setting [8]) was determined as 7.07 µM; in test [1] (setting [9]) it was 6.38 µM; with HUVECs (setting [10]) it was 48.8 µM; with HUVECs (setting [11]), 45.1 µM; in the test on HUVECs (setting [12]), 10.8 µM; in the test with HUVECs (setting [13]), 2.98 µM. Moreover, the minimal effective concentration with HUVECs (setting [14]) was 48.8 µM.

Regarding `O=S(=O)(O)Oc1cc(Cl)c(-c2cc(Cl)ccc2Cl)cc1Cl` [4-PCB 52 sulfate], the minimal effective concentration came out at 10.8 µM in test [1] (setting [2]); 41.2 µM in test [1] (setting [3]); 10.6 µM in test [1] (setting [4]); 10.8 µM in test [1] (setting [5]); 8.2 µM in test [1] (setting [6]); 44.6 µM in test [1] (setting [7]). For the same molecule, the minimal effective concentration in test [1] (setting [8]) came out at 8.28 µM; in test [1] (setting [9]) it was 8.44 µM; in the test with HUVECs (setting [10]), 5.38 µM; in the test on HUVECs (setting [11]), 3.31 µM; in the test on HUVECs (setting [12]), 61.2 µM; with HUVECs (setting [13]), 33.9 µM. Moreover, in the test with HUVECs (setting [14]), the minimal effective concentration is 5.38 µM.
